Experimental data: PubChem BioAssay (NCI)
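Values below derive from 48-hour exposures of cells grown in 96-well plates, with endpoints linearly interpolated between the two concentrations bracketing the appropriate inhibition level. Abbreviation: GI50, concentration required for 50% inhibition of growth. TGI: total growth inhibition.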

Experiments:
Assay in all cases: DTP human tumour cell line panel, 48 h
786-0 renal = test system: 786-0 renal
A549 NSCLC = test system: A549 NSCLC
ACHN renal = test system: ACHN renal
CAKI-1 renal = test system: CAKI-1 renal
CCRF-CEM leukemia = test system: CCRF-CEM leukemia
COLO 205 colon = test system: COLO 205 colon
DLD-1 colon = test system: DLD-1 colon
DMS 114 small cell lung = test system: DMS 114 small cell lung
DMS 273 small cell lung = test system: DMS 273 small cell lung
EKVX NSCLC = test system: EKVX NSCLC
HCC-2998 colon = test system: HCC-2998 colon
HCT-116 colon = test system: HCT-116 colon
HCT-15 colon = test system: HCT-15 colon
HL-60(TB) leukemia = test system: HL-60(TB) leukemia
HOP-18 NSCLC = test system: HOP-18 NSCLC
HOP-62 NSCLC = test system: HOP-62 NSCLC
HOP-92 NSCLC = test system: HOP-92 NSCLC
HT29 colon = test system: HT29 colon
IGROV1 ovarian = test system: IGROV1 ovarian
K-562 leukemia = test system: K-562 leukemia
KM12 colon = test system: KM12 colon
KM20L2 colon = test system: KM20L2 colon
LOX IMVI melanoma = test system: LOX IMVI melanoma
LXFL 529 NSCLC = test system: LXFL 529 NSCLC
M14 melanoma = test system: M14 melanoma
M19-MEL melanoma = test system: M19-MEL melanoma
MALME-3M melanoma = test system: MALME-3M melanoma
MOLT-4 leukemia = test system: MOLT-4 leukemia
NCI-H226 lung = test system: NCI-H226 lung
NCI-H23 lung = test system: NCI-H23 lung
NCI-H460 lung = test system: NCI-H460 lung
NCI-H522 lung = test system: NCI-H522 lung
OVCAR-3 ovarian = test system: OVCAR-3 ovarian
OVCAR-4 ovarian = test system: OVCAR-4 ovarian
OVCAR-8 ovarian = test system: OVCAR-8 ovarian
RPMI-8226 leukemia = test system: RPMI-8226 leukemia
RXF 393 renal = test system: RXF 393 renal
SF-268 CNS = test system: SF-268 CNS
SF-295 CNS = test system: SF-295 CNS
SF-539 CNS = test system: SF-539 CNS
SK-MEL-2 melanoma = test system: SK-MEL-2 melanoma
SK-MEL-28 melanoma = test system: SK-MEL-28 melanoma
SK-MEL-5 melanoma = test system: SK-MEL-5 melanoma
SK-OV-3 ovarian = test system: SK-OV-3 ovarian
SN12C renal = test system: SN12C renal
SNB-19 CNS = test system: SNB-19 CNS
SNB-75 CNS = test system: SNB-75 CNS
SNB-78 CNS = test system: SNB-78 CNS
SR leukemia = test system: SR leukemia
SW-620 colon = test system: SW-620 colon
TK-10 renal = test system: TK-10 renal
U251 CNS = test system: U251 CNS
UACC-62 melanoma = test system: UACC-62 melanoma
UO-31 renal = test system: UO-31 renal
XF 498 CNS = test system: XF 498 CNS

Compound: COc1cc(-c2cc(=O)c3cc4c(cc3[nH]2)OCO4)cc(OC)c1OC
- TGI (786-0 renal): > 100 µM
- TGI (A549 NSCLC): > 100 µM
- TGI (ACHN renal): > 100 µM
- TGI (CAKI-1 renal): > 100 µM
- TGI (CCRF-CEM leukemia): > 100 µM
- TGI (COLO 205 colon): > 100 µM
- TGI (DLD-1 colon): > 100 µM
- GI50 (DMS 114 small cell lung): 83.8 µM
- TGI (DMS 114 small cell lung): > 100 µM
- TGI (DMS 273 small cell lung): > 100 µM
- TGI (EKVX NSCLC): > 100 µM
- TGI (HCC-2998 colon): > 100 µM
- GI50 (HCT-116 colon): 73.7 µM
- TGI (HCT-116 colon): > 100 µM
- TGI (HCT-15 colon): > 100 µM
- TGI (HL-60(TB) leukemia): > 100 µM
- TGI (HOP-18 NSCLC): > 100 µM
- TGI (HOP-62 NSCLC): 65.2 µM
- TGI (HOP-92 NSCLC): 69 µM
- TGI (HT29 colon): > 100 µM
- TGI (IGROV1 ovarian): > 100 µM
- TGI (K-562 leukemia): > 100 µM
- TGI (KM12 colon): > 100 µM
- GI50 (KM20L2 colon): > 100 µM
- TGI (KM20L2 colon): > 100 µM
- TGI (LOX IMVI melanoma): > 100 µM
- TGI (LXFL 529 NSCLC): > 100 µM
- TGI (M14 melanoma): > 100 µM
- TGI (M19-MEL melanoma): > 100 µM
- TGI (MALME-3M melanoma): > 100 µM
- TGI (MOLT-4 leukemia): > 100 µM
- GI50 (NCI-H226 lung): > 100 µM
- TGI (NCI-H226 lung): > 100 µM
- TGI (NCI-H23 lung): > 100 µM
- TGI (NCI-H460 lung): > 100 µM
- TGI (NCI-H522 lung): > 100 µM
- GI50 (OVCAR-3 ovarian): > 100 µM
- TGI (OVCAR-3 ovarian): > 100 µM
- TGI (OVCAR-4 ovarian): > 100 µM
- TGI (OVCAR-8 ovarian): > 100 µM
- TGI (RPMI-8226 leukemia): > 100 µM
- GI50 (RXF 393 renal): 22.1 µM
- TGI (RXF 393 renal): 60.5 µM
- GI50 (SF-268 CNS): 32.7 µM
- TGI (SF-268 CNS): > 100 µM
- GI50 (SF-295 CNS): 32 µM
- TGI (SF-295 CNS): 97.9 µM
- TGI (SF-539 CNS): > 100 µM
- TGI (SK-MEL-2 melanoma): > 100 µM
- TGI (SK-MEL-28 melanoma): > 100 µM
- TGI (SK-MEL-5 melanoma): > 100 µM
- TGI (SK-OV-3 ovarian): > 100 µM
- TGI (SN12C renal): > 100 µM
- TGI (SNB-19 CNS): > 100 µM
- TGI (SNB-75 CNS): > 100 µM
- TGI (SNB-78 CNS): > 100 µM
- TGI (SR leukemia): > 100 µM
- TGI (SW-620 colon): > 100 µM
- TGI (TK-10 renal): > 100 µM
- TGI (U251 CNS): > 100 µM
- TGI (UACC-62 melanoma): > 100 µM
- TGI (UO-31 renal): > 100 µM
- TGI (XF 498 CNS): > 100 µM
